Data reported in patent publication US20180062087A1, “Organic Compound, Organic Semiconductor Material, Organic Thin Film And Method For Producing The Same, Organic Semiconductor Composition, And Organic Semiconductor Device” (Nippon Kayaku Kabushiki Kaisha, priority 2015, published 2018).

Assays:
Assay type in all cases: physicochemical
[1] = Storage stability in a solution state (solution state after one week); details: solutions of the solubility test
From the text: The organic compound represented by Formula (A) is required to be soluble in an organic solvent. The organic solvent is not particularly limited as far as being capable of dissolving the organic compound represented by Formula (A). Considering environmental problems and other conditions, the organic solvent is preferably and practically a non-halogenated solvent. Further, considering the stability of a solution obtained by dissolving the organic compound represented by Formula (A) in the organic solvent, the organic compound represented by Formula (A) needs to have reasonably high solubility at room temperature. In the organic solvent, the solubility of the organic compound represented by Formula (A) at 25° C. is usually 0.1 mass % or higher, preferably 0.3 mass % or higher, more preferably 0.5 mass % or higher, and further preferably 0.7 mass % or higher. In chloroform, the solubility of the organic compound represented by Formula (A) at 25° C. is usually 0.1 mass % or higher, preferably 0.3 mass % or higher, more preferably 0.5 mass % or higher, and further preferably 0.7 mass % or higher. In toluene, the solubility of the organic compound represented by Formula (A) at 25° C. is usually 0.1 mass % or higher, preferably 0.3 mass % or higher, more preferably 0.5 mass % or higher, and further preferably 0.7 mass % or higher. In tetrahydronaphthalene, the solubility of the organic compound represented by Formula (A) at 25° C. is usually 0.1 mass % or higher, preferably 0.3 mass % or higher, more preferably 0.5 mass % or higher, and further preferably 0.7 mass % or higher.
(§1) About 1 mg of each organic compound powder was weighed and fed into vials, and the weight of the content in each vial was measured precisely. Into these vials, chloroform, toluene, and tetrahydronaphthalene (THN) were added at 25° C. (room temperature). When the added solvent dissolved completely, the mass was measured precisely again. The mass of the organic compound was divided by the total weight of the organic compound and the added solvent, and was multiplied by 100 to obtain solubility. Dissolution or non-dissolution was judged by visual inspection.

[2] = Measurement of solubility in organic solvents at 25° C.; details: for Solubility in organic solvent at 25° C., chloroform / Solubility in organic solvent at 25° C., THN / Solubility in organic solvent at 25° C., toluene: visual inspection; for Solubility in organic solvent at 25° C., THN: tetrahydronaphthalene (THN)
Description: as §1

[3] = Differential scanning calorimetry (transition point, heat resistance); details: DSC endothermic peak indicating phase transition; powder in aluminum pan heated up to 550° C.
Description: In the following examples, reactions and measurements in an inert gas atmosphere were conducted with use of a solvent obtained by anhydrous distillation, and other reactions and operations were conducted with use of commercial Grade 1 or Special Grade solvents. The reagents were purified, as required, by anhydrous distillation or the like, and otherwise commercially available Grade 1 or Special Grade reagents were employed. In the examples, following analytical instrument and measurement instrument were employed. The nuclear magnetic resonance spectroscopy was conducted by means of LAMBDA-NMR (395.75 MHz, σ value, ppm, internal standard TMS). The differential scanning calorimetry was conducted by means of a differential scanning calorimeter METTLER-TOLED DSC1.
About 2 mg of each organic compound powder was weighed out and fed hermetically in an aluminum pan. Each sample was set on a differential scanning calorimeter and heated up to 550° C.

Compound | Solution state after one week [1] | Solubility in organic solvent at 25° C., chloroform ([2]; 25° C.) | Solubility in organic solvent at 25° C., THN ([2]; 25° C.) | Solubility in organic solvent at 25° C., toluene ([2]; 25° C.) | Peak top temperature [3] | Solubility in the organic solvent at 25° C. relative to the organic compound in Comparative example 2 ([2]; at the maximum, versus Comparative example 2) | Solubility compared with the organic compound in Comparative example 1 ([2]; organic solvent, 25° C., versus Comparative example 1)
CCCCCCCCc1ccc2sc3c4cc5cc(-c6ccccc6)ccc5cc4sc3c2c1 [Organic compound 5] | no precipitation | 0.4 mass % | 0.4 mass % | 0.4 mass % | 186 °C |  | 
CCCCc1ccc2sc3c4cc5cc(-c6ccccc6)ccc5cc4sc3c2c1 [Organic compound 4] | no precipitation | 0.5 mass % | 0.5 mass % | 0.5 mass % | 218 °C |  | 
CCCCCCCCCCc1ccc2c(c1)sc1c3ccc(-c4ccccc4)cc3sc21 [Comp. Ex. 3, reference compound] |  |  |  |  | ≤ 150 °C |  | 
CCCCCCc1ccc2cc3sc4c5cc(-c6ccccc6)ccc5sc4c3cc2c1 [Organic compound 1] |  |  |  |  |  | ≥ 10 times | higher solubility
CCCCCCc1ccc2cc3sc4c5cc(-c6ccc(CC)cc6)ccc5sc4c3cc2c1 [Organic compound 8] | no precipitation | >2 mass % | 1.4 mass % | 0.9 mass % | 229 °C |  | 
CCCCCc1ccc(-c2ccc3sc4c5cc6cc(-c7ccccc7)ccc6cc5sc4c3c2)cc1 [Organic compound 9] |  |  |  |  | 244 °C |  | 
CCCCCCCCCCc1ccc2cc3sc4c5cc(-c6ccccc6)ccc5sc4c3cc2c1 [Organic compound 6] | no precipitation | 0.3 mass % | 0.3 mass % | 0.2 mass % | 185 °C |  | 
